Measurements: PubChem BioAssay (NCI)
“And” between values parts separate entries of the source, which are not always exact repeats. Equal entries are not always repeated.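 Assay format: 96-well plates, 48-hour exposure. GI50 marks 50% less growth. TGI marks complete inhibition of growth.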

Tests used:
Experiment in all cases: NCI tumour cell line growth inhibition, 48 h
[1] = tested on: NCI-H226 lung
[2] = tested on: SR leukemia
[3] = tested on: BT-549 breast
[4] = tested on: HOP-62 NSCLC
[5] = tested on: HOP-92 NSCLC
[6] = tested on: CCRF-CEM leukemia
[7] = tested on: MCF7 breast
[8] = tested on: IGROV1 ovarian
[9] = tested on: U251 CNS
[10] = tested on: HOP-18 NSCLC
[11] = tested on: SK-MEL-28 melanoma
[12] = tested on: A549 NSCLC
[13] = tested on: NCI-H460 lung
[14] = tested on: MDA-N
[15] = tested on: UACC-257 melanoma
[16] = tested on: SN12K1 renal
[17] = tested on: SK-OV-3 ovarian
[18] = tested on: HCT-116 colon
[19] = tested on: SW-620 colon
[20] = tested on: EKVX NSCLC
[21] = tested on: DMS 114 small cell lung
[22] = tested on: DMS 273 small cell lung
[23] = tested on: TK-10 renal
[24] = tested on: OVCAR-3 ovarian
[25] = tested on: HS 578T breast
[26] = tested on: RPMI-8226 leukemia
[27] = tested on: A498 renal
[28] = tested on: KM12 colon
[29] = tested on: MDA-MB-435
[30] = tested on: M14 melanoma
[31] = tested on: HT29 colon
[32] = tested on: SNB-75 CNS
[33] = tested on: OVCAR-5 ovarian
[34] = tested on: SF-268 CNS
[35] = tested on: NCI-H522 lung
[36] = tested on: 786-0 renal
[37] = tested on: CAKI-1 renal
[38] = tested on: HCT-15 colon
[39] = tested on: MDA-MB-231 breast
[40] = tested on: K-562 leukemia
[41] = tested on: SF-539 CNS
[42] = tested on: OVCAR-8 ovarian
[43] = tested on: SF-295 CNS
[44] = tested on: RXF 393 renal
[45] = tested on: SK-MEL-2 melanoma
[46] = tested on: UACC-62 melanoma
[47] = tested on: HCC-2998 colon
[48] = tested on: SN12C renal
[49] = tested on: SNB-19 CNS
[50] = tested on: P388/ADR leukemia
[51] = tested on: P388 leukemia
[52] = tested on: XF 498 CNS
[53] = tested on: OVCAR-4 ovarian
[54] = tested on: ACHN renal
[55] = tested on: MOLT-4 leukemia
[56] = tested on: UO-31 renal
[57] = tested on: HL-60(TB) leukemia
[58] = tested on: M19-MEL melanoma
[59] = tested on: MALME-3M melanoma
[60] = tested on: NCI/ADR-RES ovarian
[61] = tested on: T-47D breast
[62] = tested on: PC-3 prostate
[63] = tested on: DU-145 prostate
[64] = tested on: SK-MEL-5 melanoma
[65] = tested on: COLO 205 colon
[66] = tested on: LOX IMVI melanoma

CN(C)/N=N/c1nc[nH]c1C(N)=O
GI50 [1]: 140 µM
GI50 [2]: 64.4 µM
TGI [2]: > 1000 µM
TGI [3]: > 1000 µM
GI50 [4]: 43.8 µM
GI50 [5]: 74 µM
TGI [5]: 87.1 µM and 796 µM
TGI [6]: 90.1 µM and > 731 µM
GI50 [7]: 154 µM
TGI [7]: > 1000 µM
GI50 [8]: 129 µM
GI50 [9]: 71.5 µM
TGI [9]: > 1000 µM
TGI [10]: 39.2 µM
GI50 [11]: 595 µM
TGI [11]: > 1000 µM
GI50 [12]: > 147 µM
GI50 [13]: 59.4 µM
TGI [13]: > 1000 µM
TGI [14]: > 1000 µM
GI50 [15]: 225 µM
TGI [15]: > 1000 µM
TGI [16]: 92.6 µM
GI50 [17]: 14.2 µM
TGI [17]: 88.7 µM and 328 µM
GI50 [18]: 45.4 µM
TGI [18]: > 1000 µM
GI50 [19]: 32.9 µM
TGI [19]: > 1000 µM
GI50 [20]: 94.1 µM and > 134 µM
TGI [20]: > 169 µM
TGI [21]: 96.8 µM
TGI [22]: 88.3 µM
GI50 [23]: 46.8 µM
TGI [23]: 828 µM
GI50 [24]: 101 µM
TGI [24]: > 1000 µM
TGI [25]: > 1000 µM
GI50 [26]: 6.81 µM
GI50 [27]: 72.4 µM and > 133 µM
TGI [27]: > 875 µM
GI50 [28]: > 156 µM
TGI [28]: > 1000 µM
GI50 [29]: 31.4 µM
TGI [29]: > 1000 µM
GI50 [30]: 92.8 µM
TGI [30]: > 1000 µM
GI50 [31]: 607 µM
TGI [31]: > 1000 µM
GI50 [32]: 126 µM
TGI [32]: 82.2 µM and > 763 µM
GI50 [33]: > 788 µM
TGI [33]: > 1000 µM
GI50 [34]: 54.8 µM
TGI [34]: > 791 µM
GI50 [35]: 82 µM
TGI [35]: 89.3 µM and > 779 µM
TGI [36]: > 1000 µM
TGI [37]: 71.7 µM and 539 µM
GI50 [38]: 73.8 µM
TGI [38]: > 1000 µM
TGI [39]: > 1000 µM
GI50 [40]: 39 µM
GI50 [41]: 47.5 µM
TGI [41]: 99.3 µM and > 875 µM
GI50 [42]: 35.9 µM
TGI [42]: > 1000 µM
GI50 [43]: 44 µM
TGI [43]: > 1000 µM
GI50 [44]: 93.3 µM
TGI [44]: 99.4 µM and > 165 µM
TGI [45]: 74.1 µM and 396 µM
GI50 [46]: 23.8 µM
TGI [46]: > 98.6 µM and 363 µM
GI50 [47]: 58.4 µM
TGI [47]: 99.5 µM and > 654 µM
GI50 [48]: 60.6 µM
TGI [48]: > 1000 µM
GI50 [49]: > 85.3 µM
TGI [49]: > 1000 µM
TGI [50]: > 96.5 µM
TGI [51]: > 98.3 µM
TGI [52]: 84.5 µM
GI50 [53]: 40.1 µM
TGI [53]: > 1000 µM
GI50 [54]: 32.5 µM and 76.6 µM
TGI [54]: > 1000 µM
GI50 [55]: 17.8 µM
GI50 [56]: 24.5 µM
TGI [56]: 96.9 µM and > 793 µM
GI50 [57]: 4.16 µM
TGI [57]: 85 µM and > 745 µM
TGI [58]: > 94.7 µM
GI50 [59]: 243 µM
TGI [59]: > 1000 µM
GI50 [60]: 232 µM
GI50 [61]: 77.3 µM
TGI [61]: > 464 µM
GI50 [62]: 77.2 µM
TGI [62]: > 1000 µM
GI50 [63]: 51.2 µM
TGI [63]: > 1000 µM
GI50 [64]: 120 µM
TGI [64]: 96.2 µM and > 429 µM
GI50 [65]: 139 µM
TGI [65]: > 1000 µM
GI50 [66]: 29.8 µM
TGI [66]: > 1000 µM
